Test results taken from patent US8841277B2, “Methods for treating non-small cell lung cancer using 5-azacytidine” (Celgene Corporation, priority 2009, dated 2014).
“Also recorded” adds a separate entry of the source.

Columns and labels:
H1299 cells [1] = experiment: Cell viability (CyQuant assay), H1299; assay type: cell-based; conditions: 72 hours; for HillSlope / LogIC50 / IC50: H1299 viability, best-fit value; for EC50 / IC50: Homo sapiens, NCI-H1299; for EC50: H1299, read-out: EC50 of effect on viability
Procedure: Certain NSCLC cell lines (H460, H1299, A549, and H1975) were purchased from American Type Culture Collection (ATCC; Manassas, Va.). The H23NSCLC cell line was obtained from the National Cancer Institute (NCI; Bethesda, Md.). Cell lines were cultured in their respective media, as recommended by ATCC and NCI. AZA was manufactured at Aptuit (Greenwich, Conn.) for Celgene (Summit, N.J.), while DAC was purchased from Sigma-Aldrich (St. Louis, Mo.). In all experiments, cells were seeded 24 hours before drug treatment and incubated at 37° C./5% CO2, For cell viability assays, H460, H1299, A549, H23, and H1975 cells were seeded in triplicate at 1×10^3, 1×10^3, 1×10^3, 4×10^3, and 4×10^3 cells per well, respectively, in 96-well plates, using 200 μL of medium per well. Fresh drug was added every 24 hours by replacing medium with drug-containing medium. For all other assays, cells were seeded at 0.6-1.2×10^5 cells per well, in 6-well plates, using 4 mL of medium per well, with fresh drug added directly to the medium every 24 hours.
Cell viability was assessed using the CyQuant assay (Life Technologies Corporation; Carlsbad, Calif.). Fluorescence was measured with a spectrophotometer (Molecular Devices; Sunnyvale, Calif.), and EC50 values were calculated in Prism® version 5.01 (GraphPad Software, Inc.; La Jolla, Calif.), using results from three independent experiments.
The six data sets represent calculations of EC50 values from raw data using Prism®. The standard deviation among the three independent experiments was determined at each drug concentration. For some of the cell lines, Prism® was not able to calculate the EC50 for DAC. For those curves that an EC50 was available, the SE (Std. Error) was acceptable (SE of the logEC50 should be less than 0.5), meaning that the standard errors were not too large. The 95% Confidence Intervals for the EC50 were considered as a measure of error.

H1975 cells = experiment: Cell cycle distribution (NIM-DAPI), H1975; assay type: cell-based; conditions: 72-hour treatment, 0.3-10 μM
Description: (§1) These studies examined the cell cycle distribution of NSCLC cells treated with AZA or DAC using NIM-DAPI analysis.
(§2) For cell cycle distribution, cells were stained with the NIM-DAPI reagent (Beckman Coulter, Inc.; Fullerton, Calif.). For measurement of early- and late-apoptotic cell populations, cells were stained with AnnexinV-FITC and 7-AAD reagents (Beckman Coulter, Inc.). Samples were processed according to manufacturer's instructions and analyzed on a Cell Lab Quanta MPL flow cytometer (Beckman Coulter, Inc.). […] Data were also collected for untreated cells as control.

H460 cells [2] = experiment: Cell cycle distribution (NIM-DAPI), H460; assay type: cell-based
Description: as §1, §2

A549 cells = experiment: Apoptosis (AnnexinV-FITC/7-AAD), A549; assay type: cell-based; conditions: 0.3-10 μM
Description: as §2

H1299 cells [3] = experiment: Apoptosis (AnnexinV-FITC/7-AAD), H1299; assay type: cell-based; conditions: 0.3-10 μM
Description: as §2

H460 cells [4] = experiment: Western analysis of DNA damage and apoptosis markers, H460; assay type: cell-based; conditions: for Induction of Histone H2AX phosphorylation / Induction of PARP cleavage: 0.3-10 μM; for Induction of Histone H2AX phosphorylation: 24 h, 48 h, up to 72 hour
Procedure: (§3) These studies also examined apoptosis using an assay for PARP cleavage. Cells studied included H460, A549, and H1299 cells.
(§4) For western analyses of protein levels, cells were washed with PBS and lysed with RIPA buffer (Cell Signaling Technology, Inc.; Danvers, Mass.) containing 350 mM NaCl and 0.1% SDS. Cell lysates were sonicated with two 5-second bursts under low amplitude (20%) using the Digital Sonic Dismembrator (Thermo Fisher Scientific, Inc.; Waltham, Mass.). Proteins were separated on 4-12% Bis-Tris NuPAGE gels (Life Technologies Corporation) and transferred to nitrocellulose membranes. DNMT1, phos-Histone-H2AX(Ser139), total Histone-H2AX, cleaved-PARP, p21, p53, and alpha-tubulin were detected using the Li-Cor Odyssey imaging system (Li-Cor Biotechnology; Lincoln, Nebr.), following incubation with the appropriate primary and secondary antibodies. The phos-Histone-H2AX(Ser139), cleaved-PARP, and p21 antibodies were from Cell Signaling Technology, Inc. The p53 and total Histone-H2AX (C-20) antibodies were from Santa Cruz Biotechnology, Inc. (Santa Cruz, Calif.). The alpha-tubulin and DNMT1 antibodies were purchased from EMD Chemicals, Inc. (Gibbstown, N.J.) and Abcam, Inc. (Cambridge, Mass.), respectively. The goat anti-Rabbit IRDye 680, goat anti-Mouse IRDye 800CW, and donkey anti-Goat IRDye 800CW secondary antibodies were from Li-Cor Biotechnology.

H1299 cells [5] = experiment: Western analysis of DNA damage and apoptosis markers, H1299; assay type: cell-based
Procedure: as §3, §4

DNMT1 = DNMT1 protein depletion, A549; assay type: cell-based; conditions: for DNMT1 protein levels: dose range
Procedure: as §4
Reduced DNMT1 levels were detected in these cell lines as early as 4 hours after drug treatment (FIG. 17).

H1299 cells [6] = experiment: Gene expression microarray analysis, H1299; assay type: cell-based, human; conditions: 48 hours; for Downregulated Genes: AZA-Specific / DAC-Specific Genes (number) / Upregulated Genes: AZA-Specific / DAC-Specific Genes (number) / Downregulated Genes: Genes in Common (number) / Upregulated Genes: Genes in Common (number): H1299; for Downregulated Genes: Genes in Common (number) / Upregulated Genes: Genes in Common (number): regulated by both AZA and DAC;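 as to Downregulated Genes: AZA-Specific / DAC-Specific Genes (number): drug dose range 0.3 to 3 µM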;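 as to Downregulated Genes: Genes in Common (number): drug dose range 0.3 to 3 µM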;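 as to Upregulated Genes: AZA-Specific / DAC-Specific Genes (number): drug dose range 0.3 to 3 µM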;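 as to Upregulated Genes: Genes in Common (number): drug dose range 0.3 to 3 µM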
Procedure: Cells were lysed using the TRIzol reagent (Life Technologies Corporation) and total RNA was isolated using miRNeasy (Qiagen). Double-stranded cDNA and biotin-labeled cRNA were synthesized using 100 ng of total RNA using Ambion's MessageAmp Premier RNA Amplification Kit (ABI; Foster City, Calif.). Biotin-labeled cRNA, at 10 μg, was fragmented and hybridized to each human U133A 2.0 genechip (Affymetrix; Santa Clara, Calif.). The GC-RMA algorithm was used for normalization and all analyses were done using GeneSpring 7.3 (Agilent; Santa Clara, Calif.). Averaged signals from biological duplicate samples were used to determine fold change (Treated vs. Untreated), with an absolute fold change of ≧1.7 defining regulated genes. NextBio was used to identify regulated Gene Ontology biogroups from lists of regulated genes. The top 15 biogroups are those with the lowest p-values calculated within NextBio.
The number of genes modulated in common between the two drugs was low.
Functional groupings of the modulated genes were determined using Gene Ontology classifications in Nextbio (http://www.nextbio.com/).

[7] = 0.3-10 μM, up to 3 days of treatment

Row | EC50 (H1299 cells [1]) | IC50 (H1299 cells [1]) | Compound | HillSlope (H1299 cells [1]) | LogIC50 (H1299 cells [1]) | Cell cycle distribution (NIM DAPI) (H1975 cells) | Cell cycle distribution (NIM DAPI) (H460 cells [2]; 30-hour treatment, 0.3-10 μM) | Cell cycle distribution (NIM DAPI) (H460 cells [2]; 60-hour treatment, 0.3-10 μM) | Cell cycle distribution (NIM DAPI) (H460 cells [2]; summary of studies) | Early- and late-apoptotic cell populations (AnnexinV/7-AAD) (A549 cells; 48-hour treatment) | Early- and late-apoptotic cell populations (AnnexinV/7-AAD) (H1299 cells [3]; 48-hour treatment) | Early- and late-apoptotic cell populations (AnnexinV/7-AAD) (H1299 cells [3]; 72-hour treatment) | Induction of Histone H2AX phosphorylation (H460 cells [4]) | Induction of PARP cleavage (H460 cells [4]; 24 h and 48 h) | Induction of Histone H2AX phosphorylation (H1299 cells [5]; [7]) | Induction of PARP cleavage (H1299 cells [5]; [7]) | DNMT1 protein levels (DNMT1; 20 hours) | Downregulated Genes: AZA-Specific / DAC-Specific Genes (number) (H1299 cells [6]; 0.3 μM) | Upregulated Genes: AZA-Specific / DAC-Specific Genes (number) (H1299 cells [6]; 0.3 μM) | Downregulated Genes: Genes in Common (number) (H1299 cells [6]; 0.3 μM) | Upregulated Genes: Genes in Common (number) (H1299 cells [6]; 0.3 μM) | further results
1 | 5.1 µM | 5.12 µM | Nc1ncn([C@@H]2O[C@H](CO)[C@@H](O)[C@H]2O)c(=O)n1 [AZA, 4-amino-1-β-D-ribofuranosyl-1,3,5-triazin-2(1H)-one] | −1.138 | 0.7095 | decrease of cells in G0/G1 and accumulation of cells in G2/M and Sub-G1 | induced accumulation of cells in Sub-G1 | decrease of cells in G0/G1 with a concomitant increase of cells in Sub-01 | induced accumulation of cells in Sub-G1 | dramatic increase in early-apoptotic (AnnexinV^+ 7-AAD^−) and late-apoptotic (AnnexinV^+ 7-AAD^+) cells | dramatic increase in early-apoptotic (AnnexinV^+ 7-AAD^−) and late-apoptotic (AnnexinV^+ 7-AAD^+) cells | dramatic increase in early-apoptotic (AnnexinV^+ 7-AAD^−) and late-apoptotic (AnnexinV^+ 7-AAD^+) cells | induced | induced | induced | induced | significantly reduced | 33 | 10 | 45 | 55 | Concentrations affecting Histone H2AX phosphorylation and PARP cleavage (H460 cells [4]): above 1 μM; Concentrations affecting Histone H2AX phosphorylation and PARP cleavage (H1299 cells [5]): above 3 μM; Downregulated Genes: AZA-Specific / DAC-Specific Genes (number) (H1299 cells [6]; 1.0 μM): 393; Upregulated Genes: AZA-Specific / DAC-Specific Genes (number) (H1299 cells [6]; 1.0 μM): 435; Downregulated Genes: Genes in Common (number) (H1299 cells [6]; 1.0 μM): 107; Upregulated Genes: Genes in Common (number) (H1299 cells [6]; 1.0 μM): 135; Downregulated Genes: AZA-Specific / DAC-Specific Genes (number) (H1299 cells [6]; 3.0 μM): 991; Upregulated Genes: AZA-Specific / DAC-Specific Genes (number) (H1299 cells [6]; 3.0 μM): 1368; Downregulated Genes: Genes in Common (number) (H1299 cells [6]; 3.0 μM): 153; Upregulated Genes: Genes in Common (number) (H1299 cells [6]; 3.0 μM): 173
2 | 5.2 µM | 5.19 µM | Nc1ncn([C@H]2C[C@H](O)[C@@H](CO)O2)c(=O)n1 [DAC, 5-aza-2′-deoxycytidine] | −0.4536 | 0.7153 | slight increases in G2/M and Sub-G1 | induced accumulation of cells in Sub-G1 | slight increase in Sub-G1 | induced accumulation of cells in Sub-G1 | very slight increase in these cell populations | very slight increase in these cell populations | very slight increase in these cell populations | did not have any effect | did not have any effect | did not have any effect | did not have any effect | significantly reduced | 121 | 214 | 45 | 55 | Early- and late-apoptotic cell populations (AnnexinV/7-AAD) (A549 cells; 72-hour treatment): very slight increase in these cell populations; also recorded: slight increase in early-apoptotic (AnnexinV^+ 7-AAD^−) cells only; p21 expression (H460 cells [4]; 24 h and 48 h, dose-dependent): induce; p53 expression (H460 cells [4]; 24 h and 48 h, dose-dependent): induce; Induction of Histone H2AX phosphorylation (H1299 cells [5]; 6 days of treatment): induced strong; Induction of PARP cleavage (H1299 cells [5]; 6 days of treatment): failed to induce significant; DNMT1 depletion (DNMT1; 0.3-10 μM, 24 h and 48 h (Example 5)): able to cause DNMT1 depletion; Relative potency in reducing DNMT1 levels (DNMT1; 20 hours): more potent than AZA; Concentration of maximal reduction of DNMT1 levels (DNMT1; 20 hours, lowest concentration tested): 0.05 µM; Fold more genes modulated than AZA (H1299 cells [6]; H1299 (stated for A549 and H1299 together), 0.3 μM): 4- to 20 fold; Downregulated Genes: AZA-Specific / DAC-Specific Genes (number) (H1299 cells [6]; 1.0 μM): 170; Upregulated Genes: AZA-Specific / DAC-Specific Genes (number) (H1299 cells [6]; 1.0 μM): 238; Downregulated Genes: Genes in Common (number) (H1299 cells [6]; 1.0 μM): 107; Upregulated Genes: Genes in Common (number) (H1299 cells [6]; 1.0 μM): 135; Downregulated Genes: AZA-Specific / DAC-Specific Genes (number) (H1299 cells [6]; 3.0 μM): 257; Upregulated Genes: AZA-Specific / DAC-Specific Genes (number) (H1299 cells [6]; 3.0 μM): 303; Downregulated Genes: Genes in Common (number) (H1299 cells [6]; 3.0 μM): 153; Upregulated Genes: Genes in Common (number) (H1299 cells [6]; 3.0 μM): 173
